Ends that are not written are not given here.
Tests used:
[1] = tested on: P. yoelii (non lethal strain 17XNL) sporozoites; assay: Comparison of lots and forms of derG in malaria system (Table 9); assay type: in vivo; conditions: A/J mice, 5 μg two times, TiterMax
Method: Four (4) groups of 10 mice (4-to 6-wk-old female A/J) were subcutaneously two times at 3-week intervals with 5 μg of the derG peptide, emulsified in TiterMax™ at 1:1 ratio as previously described. Two other groups of mice treated with TiterMax™ alone and untreated mice served as controls. Fourteen days after the second treatment mice were intravenously challenged with 100 P. yoelii (non lethal strain 17XNL ) sporozoites. Parasitemia was determined by microscopic examination of 200 oil-immersion fields of Geimsa stained-thin blood smears obtained from the mice at 5, 7, and 14 days post challenge.
In particular, the derG(19) peptide contains an additional glycine amino acid inserted between the A 140 and V 142 residues. The rationale for the insertion was that these two residues are involved in the CD4 interaction as disclosed in Konig et al. “MHC class II interaction with CD4 medicated by a region analogous to the MHC class I binding site for CD8”, Nature 1992; 356:796-798.

SF/GF peptide = assay: Serum antibody ELISA to SF/GF peptide; assay type: in vivo, mouse
Text: (§1) Next using another antigen with B and T cell activity two inbred strains of mice, (A/J and Balb/c) were immunized twice at three week intervals with the L.E.A.P.S.™ constructs (J-GF/SF or der-SF/GF) or with the subunits (SF/GF, J and derG) used to make heteroconjugated peptides, and were challenged with 100 Plasmodium yoelii sporozoites 2 weeks after the second immunization and protection efficacy evaluated as before. Four days before challenge, serum was collected from individual animals, pooled and analyzed immediately for antibody to SF/GF peptide sera collected from immunized and protected mice 15 days post challenge were pooled and used for IFN-γ determination by ELISA procedures.

[2] = tested on: plasmodium yoelii sporozoites; assay: Protection from sporozoite challenge, TCBL derG in inbred mice (Tables 5, 6); assay type: in vivo
Text: as §1
Another experiment similar to the first except only a single strain of mice (A/J) was used with decreasing doses of the derG in order to evaluate potency as shown in Table 6.

IFN-γ = assay: Serum IFN-γ by ELISA; assay type: in vivo, mouse; conditions: A/J mice, sera pooled 15 days post challenge
Text: as §1

B16 melanoma = assay: Allogeneic murine B16 melanoma protection model; assay type: in vivo, mouse; conditions: for Protection: in combination with allogeneic cells
Method: In particular, C57/b16 (H2^b) mice are vaccinated with the allogeneic melanoma K1735 (H2^k) at least twice on weekly intervals and then challenged with syngeneic B16 (H2^b) tumors. […] This is clear evidence of cross-priming and the existence of shared antigens.
Peptide constructs were prepared using as T cell binding ligand, either derG (SEQ ID NO. 7), Peptide G (SEQ ID NO. 5). The peptides are synthesized using the FMOC procedure and a double coupling protocol for the first 8 residues. Usually the peptide is prepared with the carboxyl terminus as an amide form. All of the peptides are purified using prepatative HPLC, and analyzed by an analytical HPLC, amino acid analysis and mass spectrophotometer. The peptides are greater than 95%, usually greater than 98%, pure by HPLC criteria. The dry peptides are stored in vials with desiccant at −8° C. • 1) Eight groups of seven mice were injected with 200 μl of the vaccine as shown in FIG. 1. • 2) This was repeated after 7 days. • 3) A further 7 days later, mice were challenged with 200 μl saline containing 5×10^4 live B16 on the contralateral side to vaccination. • 4) Mice were sacrificed when tumor size exceeded 15 mm in either axis.
In order more precisely model the use of clinical allogeneic vaccines, a frozen vaccine was used in the mouse model wherein K-1735 cells were thawed just prior to use. Efficacy in the protection model ranged from 40-10%. Additionally, the antigen TRP2 (a.a. 180-188), found in B16 melanoma, was engineered into L.E.A.P.S.™ constructs and was tested in various permutations in the allogeneic murine melanoma model. Optimization may be necessary.

HSV-1 = assay: Scarification-zosteriform spread model of HSV infection; assay type: in vivo; conditions: A/J mice
Method: Groups of 4-to 6-wk old female A/J mice were subcutaneously inoculated once with 25 μg of the derG peptide emulsified in ISA51 adjuvant at a 1:1 ratio before challenge unless otherwise specified. Untreated mice and mice treated with adjuvant served as additional controls. The mice were challenged as specified in methods well known to those of ordinary skill in the art and as exemplified by Goel et al. (“The Ability of an HSV Strain to Initiate Zosteriform Spread Correlates with its Neuroinvasive Disease Potential”, Arch Virol 147:763-773 (2002)) and Goel et al., (“A Modification Of The Epidermal Scarification Model Of Herpes Simplex Virus Infection To Achieve A Reproducible And Uniform Progression Of Disease”, J Virol Meth 106;153-8 (2002)).
In particular, hair is removed by shaving and then Nair® is applied. Twenty-fours later the depilated back of a mouse is scratched or abraded to expose the susceptible epidermal layer and virus rubbed in. To provide more detail, 10 μl of a virus suspension containing 6×10^4 plaque forming-units was pipetted onto a 0.5 cm square of skin on mouse dorsal surface, which was previously abraded using sand paper glued on a pencil eraser. In untreated animals, the primary lesion developed at the inoculation site within 3 days and spread to the associated root, followed by anterograde transport and formation of secondary lesions at sites along the dermatome of the nerves within 5 days. In severe cases, animals died within 8 days post viral challenge. Disease progression and survival were monitored for at least 10 days. […] The progression and the severity of the lesions was scored from 0 to 7 (death). This model allows for discrimination of the disease progression (local site, neuronal spread, extent of lesion at the dermatome, death) at which the immune system blocks viral progression. In some experiments modifications in the timing, route of administration and mouse strain were evaluated for efficacy of CEL-1000.

[3] = tested on: plasmodium yoelii sporozoites; assay: Protection from sporozoite challenge in different mouse strains (Table 7); assay type: in vivo; conditions: 25 μg, 2 times at 3 week intervals, TiterMax
Method: Since derG alone was able to protect A/J mice against Plasmodium yoelii sporozoites challenge, in the absence of malaria antigen, a similar experiment was conducted to evaluate the protective efficacy of derG in three other mouse strains: BALB/c (H2d), C3H/HeJ (H2K) and hybrid CAF1 (A/J×BALB/c).
Groups of 10 mice were pre-treated 2 times at 3 week intervals with 25 μg of derG in TiterMax™ adjuvant and challenged with 100 Plasmodium yoelii sporozoites. Protective efficacy was evaluated as described above.

[4] = tested on: plasmodium yoelii sporozoites; assay: Malaria protection assay, G/W peptides (Table 4); assay type: in vivo; conditions: Experiment 2, outbred CD-1 mice; 25 μg twice; 200 sporozoites
Method: In particular, mice were immunized twice at three week intervals with 25 μg of the subunits (W or G) used to make the L.E.A.P.S.™ construct (GW), and were challenged with 200 plasmodium yoelii sporozoites 2 weeks after the second immunization. Protective efficacy was evaluated by thin blood smears every other day starting 4 days after the challenge. Mice were considered protected if no blood stage parasites were detectable by 14 days after challenge.

[5] = A/J mice, dose 5 μg, serum pool 4 days before challenge
[6] = A/J mice, dose 25 μg, serum pool 4 days before challenge
[7] = Balb/c mice, dose 25 μg, Table 5
[8] = A/J mice, dose 1.25 μg, Table 6

Substance	Antibody ELISA A490* (SF/GF peptide; [5])	Antibody ELISA A490* (SF/GF peptide; [6])	Antibody ELISA A490* (SF/GF peptide; Balb/c mice, dose 25 μg)	Protection (%) ([2]; A/J mice, dose 5 μg, Table 5)	Protection Protected/Tested ([2]; A/J mice, dose 5 μg, Table 5)	Protection (%) ([2]; A/J mice, dose 10 μg, Table 6)	Protection Protected/Tested ([2]; A/J mice, dose 10 μg, Table 6)	Protection (%) ([2]; A/J mice, dose 25 μg, Table 5)	Protection Protected/Tested ([2]; A/J mice, dose 25 μg, Table 5)	Protection (%) [2, 7]	Protection Protected/Tested [2, 7]	IFN-γ serum (IFN-γ; dose 5 μg)	IFN-γ serum (IFN-γ; dose 25 μg)	Protection (%) ([2]; A/J mice, dose 5 μg, Table 6)	Protection Protected/Tested ([2]; A/J mice, dose 5 μg, Table 6)	further results
DGQEEKAGGVVSTGLIGGGamide (DGQEEKAGGVVSTGLIGGG-NH2) [derG(19), derG with an additional glycine inserted between the A 140 and V 142 residues]																% Protected ([1]; Lot 1): 40%; Protected/Total ([1]; Lot 1): 4/10; % Protected ([1]; Lot 2): 30%; Protected/Total ([1]; Lot 2): 3/10; % Protected ([1]; Lot 3): 50%; Protected/Total ([1]; Lot 3): 5/10
DLLKNGERIEKVEGGG [J, short fragment from β2-microglobulin (a.a. 38-50)]	1	2	2	(10%)	1/10	(10%)	1/10	(10%)	1/10	(0%)	0/10					
DLLKNGERIEKVEGGG SFPMNEESPLGFSPEEMEAVASKFR [J-GF/SF]	1,103	6,121	11,454	(10%)	1/10	(56%)	5/9	(100%)	10/10	(0%)	0/10	0 pg/mL	4,000 pg/mL			
SFPMNEESPLGFSPEEMEAVASKFR [GF/SF]	8,443	19,970		(30%)	3/10	(50%)	5/10	(100%)	10/10			10,000 pg/mL	12,500 pg/mL	(10%)	1/10	
DGQEEKAGVVSTGLIGGGamide (DGQEEKAGVVSTGLIGGG-NH2) [derG, modified fragment from MHC II β-chain (a.a.135-149)]	2	2	4	(100%)	10/10			(100%)	10/10	(0%)	0/10	40,000 pg/mL	18,000 pg/mL	(100%)	10/10	Protection (%) [2, 8]: (60%); Protection Protected/Tested [2, 8]: 6/10; Protection (%) ([2]; A/J mice, dose 2.5 μg, Table 6): (80%); Protection Protected/Tested ([2]; A/J mice, dose 2.5 μg, Table 6): 9/10; Protection (B16 melanoma; first value named of two experiments): 30%; Protection (B16 melanoma; second value named of two experiments): 40%; protection from lethal HSV-1 challenge (HSV-1): protects; Protection (HSV-1; intramuscularly 2 weeks prior to challenge, without adjuvant, in aqueous solution): 100%; onset of symptoms, morbidity and mortality (HSV-1; single dose of 25 μg, timing of administration): delay in onset of symptoms; Protection ([3]; A/J mice): 80; Protection ([3]; BALB/c mice): 0; Protection ([3]; C3H mice): 40; Protection ([3]; CAF1 hybrid mice): 40; % Protected ([1]; form 18): 90%; Protected/Total ([1]; form 18): 9/10
DGQEEKAGVVSTGLIGGGSFPMNEESPLGFSPEEMEAVASKFR [derG-GF/SF]	1,933	10,694	17,019	(80%)	8/10			(100%)	10/10	(0%)	0/10	7,000 pg/mL	6,000 pg/mL	(10%)	1/10	
NGQEEKAGVVSTGLIGGGamide (NGQEEKAGVVSTGLIGGG-NH2) [G + TM]																activity compared with derG (B16 melanoma; differences from derG): much less active; # Protected/# tested [4]: 6/16; % protection [4]: 38%
